Data taken from patent US20230096028A1, “BICYCLIC HETEROCYCLYL COMPOUNDS AND USES THEREOF” (Revolution Medicines, Inc., priority 2019, published 2023).

What follows are compounds tested against T1, SOS1 (Homo sapiens, UniProt Q07889) (assay: Bodipy-FL-GTP Association Assay (SOS1-mediated exchange of KRAS-4B:GDP to KRAS-4B:GTP)). Conditions: SOS1-mediated BODIPY FL GTP exchange on KRAS-4B, 22° C.
T1 construct: SOS1 (Cytoskeleton Inc., Cat. CS-GE02); purchased Cytoskeleton Inc. CS-GE02
T1 sequence (Q07889 564-1049 limits assumed): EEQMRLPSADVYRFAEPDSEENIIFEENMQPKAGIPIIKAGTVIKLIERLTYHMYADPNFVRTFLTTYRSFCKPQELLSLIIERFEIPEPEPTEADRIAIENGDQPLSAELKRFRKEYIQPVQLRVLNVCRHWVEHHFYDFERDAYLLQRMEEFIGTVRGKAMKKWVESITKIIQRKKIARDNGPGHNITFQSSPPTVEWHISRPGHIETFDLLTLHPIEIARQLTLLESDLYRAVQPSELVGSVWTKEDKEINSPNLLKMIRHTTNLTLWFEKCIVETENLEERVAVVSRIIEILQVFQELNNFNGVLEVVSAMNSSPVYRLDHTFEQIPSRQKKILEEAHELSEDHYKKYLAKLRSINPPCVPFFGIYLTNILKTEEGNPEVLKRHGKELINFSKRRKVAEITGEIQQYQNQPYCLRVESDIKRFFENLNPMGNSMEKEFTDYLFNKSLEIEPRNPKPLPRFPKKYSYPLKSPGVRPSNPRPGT
Type: biochemical
Protocol: A low IC50 value for a given compound is indicative of high potency of said compound in inhibiting the guanine nucleotide exchange factor (GEF) activity of SOS1 on KRAS-4B in this assay setting.
Reagents: BODIPY FL GTP (ThermoFisher Scientific, Cat. G12411); KRAS4-B (Cytoskeleton Inc., Cat. CSRS03); SOS1 (Cytoskeleton Inc., Cat. CS-GE02); 2×Assay Buffer: 40 mM Tris-HCl, pH 7.5; 100 mM NaCl; 20 mM MgCl2; 0.1 mg/mL BSA; 0.02% NP-40
Assay Procedure: Test compounds were dissolved in DMSO to create 20 mM master stocks. The stocks were diluted in a 3× dilution series in 100% DMSO to achieve 100× compound stocks. A 1 μl spot of each test compound stock was delivered to two adjacent wells of a 96-well assay plate prior to running the assay. Reaction Mix preparation: The following were mixed in order at room temperature to obtain the “Reaction Mix” (5.75 mL 2× Exchange Buffer; 3.22 mL MilliQ ddH2O; 3 μL 5 mM BODIPY FL GTP; 230 μL 50 μM KRAS-4B; 9.203 mL Total volume. Reaction initiation: 80 μL of Reaction Mix was pipetted into each well of a half-area black 96-well plate (Corning, Cat. 3686) containing either a 1 μL spot of DMSO or a 1 μL spot test compound at the concentrations listed above. 20 μL of 1 μM SOS1 was then added to each well to initiate the reaction. For the no GEF control wells this was replaced with 1× exchange buffer. Kinetic measurement: The reaction was monitored in a SpectraMax M2 Microplate Reader (Molecular Devices) under the following protocol: 5 second rapid circular mixing before first read; 61 readings, 30 seconds apart; Assay temperature: 22° C.; Excitation wavelength: 485 nm; Emission wavelength: 513 nm. Data Analysis: The Vmax values for the SOS1-mediated BODIPY FL GTP exchange curves in the presence of test compounds were normalized to the most dilute test sample columns or DMSO only control wells to give the % Activity for each concentration of test compound. Plots of % Activity vs. the Log 10 of the compound concentration were fit by non-linear regression to a 4-parameter logistic model.

| IC50 [nM] | Structure (SMILES) |
| --- | --- |
| > 5000 | C[C@@H](Nc1nc(Cl)nc2c1CN([C@H]1CC[C@@H](O)CC1)C2)c1cc(N)cc(C(F)(F)F)c1 [Example 8, cis-4-(4-{[(1R)-1-[3-amino-5-(trifluoromethyl)phenyl]ethyl]amino}-2-chloro-5H,6H,7H-pyrrolo[3,4-d]pyrimidin-6-yl)cyclohexan-1-ol] |
| > 5000 | C[C@@H](Nc1nc(Cl)nc2c1CN([C@H]1CC[C@H](O)CC1)C2)c1cc(N)cc(C(F)(F)F)c1 [Example 9, trans-4-(4-{[(1R)-1-[3-amino-5-(trifluoromethyl)phenyl]ethyl]amino}-2-chloro-5H,6H,7H-pyrrolo[3,4-d]pyrimidin-6-yl)cyclohexan-1-ol] |
| 1000 to 5000 | C[C@@H](Nc1nc(Cl)nc2c1CN([C@H]1CC[C@@H](C(=O)N(C)C)CC1)C2)c1cc(N)cc(C(F)(F)F)c1 [Example 10, cis-4-(4-{[(1R)-1-[3-amino-5-(trifluoromethyl)phenyl]ethyl]amino}-2-chloro-5H,6H,7H-pyrrolo[3,4-d]pyrimidin-6-yl)-N,N-dimethylcyclohexane-1-carboxamide] |
| 1000 to 5000 | C[C@@H](Nc1nc(Cl)nc2c1CCN(CC1CCOC1)CC2)c1cc(N)cc(C(F)(F)F)c1 (stereo partly shown) [Example 11] |
| < 1000 | Cc1nc2c(c(N[C@H](C)c3cc(N)cc(C(F)(F)F)c3)n1)CN(CC1CCOC1)CC2 (stereo partly shown) [Example 12] |
| 1000 to 5000 | Cc1nc2c(c(N[C@H](C)c3cc(N)cc(C(F)(F)F)c3)n1)CN(CC1CCOC1)C2 (stereo partly shown) [Example 13] |
| < 1000 | COc1nc2c(c(N[C@H](C)c3cc(N)cc(C(F)(F)F)c3)n1)CN(C(=O)N1CCOCC1)C2 [Example 14] |
| 1000 to 5000 | C[C@@H](Nc1nc(O)nc2c1CN(C(=O)N1CCOCC1)C2)c1cc(N)cc(C(F)(F)F)c1 [Example 15] |
| < 1000 | C[C@@H](Nc1ncnc2c1CN(C(=O)N1CCOCC1)C2)c1cc(N)cc(C(F)(F)F)c1 [Example 16] |
| < 1000 | C[C@@H](Nc1ncnc2c1CN(C(=O)C1CCN(C)CC1)C2)c1cc(N)cc(C(F)(F)F)c1 [Example 17] |
| 1000 to 5000 | C[C@@H](Nc1nc(Cl)nc2c1CN([C@H]1CC[C@H](C(=O)N(C)C)CC1)C2)c1cc(N)cc(C(F)(F)F)c1 [Example 19] |
| < 1000 | C[C@@H](Nc1nc(Cl)nc2c1CN(CC1CCOC1)C2)c1cc(N)cc(C(F)(F)F)c1 (stereo partly shown) [Example 20] |

| Structure (SMILES) | IC50 [nM] |
| --- | --- |
| C[C@@H](Nc1nc(Cl)nc2c1CN(C(=O)C1CCN(C)CC1)C2)c1cc(N)cc(C(F)(F)F)c1 [Example 18] | < 1000 |
| Cc1nc2c(c(N[C@H](C)c3cc(N)cc(C(F)(F)F)c3)n1)CN(C(=O)C1CCN(C)CC1)C2 [Example 21] | < 1000 |

What follows are compounds tested on NCI-H358 xenograft (assay: In vivo tumor cell growth, NSCLC NCI-H358 xenograft model). Conditions: 10 mg/kg, repeated daily dosing, single agent.
Parameters: species or system female balb/c athymic nude mice
Protocol: Objective: To evaluate the efficacy of the SOS1 inhibitor Compound A alone and in combination with a KRAS G12C inhibitor MRTX1257 following oral administration in the human non-small cell lung cancer (NSCLC) NCI-H358 xenograft model in nude mice.
Methods: The effect of a SOS1 inhibitor of the present invention (Compound A) on tumor cell growth in vivo was evaluated in the NSCLC NCI-H358 xenograft model using female balb/c athymic nude mice (6-8 weeks old). Mice were implanted with H358 tumor cells in 50% matrigel (5^e6 cells/mouse) subcutaneously in the flank. Once tumors reached an average size of ˜200 mm^3, mice were randomized to treatment groups and administration of test article or vehicle (2% HPMC, 0.1% tween in 50 mM sodium citrate buffer pH 4). Body weight and tumor volume (using digital calipers) were measured twice a week until study endpoints. Compounds were administered by oral gavage daily.

| Structure (SMILES) | tumor growth inhibition, TGI [%] |
| --- | --- |
| C=CC(=O)N1CCN(c2nc(OC[C@@H]3CCCN3C)nc3c2CCN(c2cccc4cccc(C)c24)C3)C[C@@H]1CC#N [MRTX1257] | 76 |

Same assay, conditions: 50 mg/kg, H358 model

| Structure (SMILES) | tumor response |
| --- | --- |
| C=CC(=O)N1CCN(c2nc(OC[C@@H]3CCCN3C)nc3c2CCN(c2cccc4cccc(C)c24)C3)C[C@@H]1CC#N [MRTX1257] | achieved regressions |
